Values after ≈ are worked out from the molar mass of the structure shown.
Legend:
Acinetobacter baumannii [1] = experiment: Antibacterial activity against Acinetobacter baumannii ATCC19606 incubated for 18 to 20 hrs in presence of 1% of human serum by microbroth dilution method; type: functional; details: time 18-20 hrs
[2] = Inhibition of wildtype Acinetobacter baumannii MsbA preincubated for 30 mins followed by ATP addition and measured after 1 hrs by Transcreener ADP2 F1 assay
Acinetobacter baumannii [3] = experiment: Antibacterial activity against Acinetobacter baumannii ATCC19606 assessed as bacterial growth inhibition incubated for 18 to 20 hrs by microbroth dilution method; type: functional; details: time 18-20 hrs
Acinetobacter baumannii [4] = experiment: Selectivity ratio of MIC95 for antibacterial activity against Acinetobacter baumannii ATCC19606 in the presence of 1% human serum to MIC95 for antibacterial activity against Acinetobacter baumannii ATCC19606; type: functional

MIC95 (Acinetobacter baumannii [1]) | EC50 [2] | MIC95 (Acinetobacter baumannii [3]) | SMILES | Selectivity ratio (Acinetobacter baumannii [4])
11.3 µM | 83 nM | 0.112 µM (≈ 0.0872 µg/mL) | CCCCc1ccc(S(=O)(=O)Nc2ccc(NC(=O)CCNC(=O)c3ccc(NS(=O)(=O)c4ccc(CCCC)cc4)c(C(=O)O)c3)cc2C(=O)O)cc1 | 101
12.5 µM | 64 nM | 0.196 µM (≈ 0.153 µg/mL) | CCCCc1ccc(S(=O)(=O)Nc2ccc(NC(=O)CCC(=O)Nc3ccc(NS(=O)(=O)c4ccc(CCCC)nc4)c(C(=O)O)c3)cc2C(=O)O)cc1 | 64
4.42 µM | 47 nM | 0.069 µM (≈ 0.0563 µg/mL) | CCCCc1ccc(S(=O)(=O)Nc2ccc(NC(=O)CCC(=O)Nc3ccc(NS(=O)(=O)c4ccc(Oc5ccccc5)nc4)c(C(=O)O)c3)cc2C(=O)O)cc1 | 64
25 µM | 291 nM | 0.553 µM (≈ 0.444 µg/mL) | CCCCc1ccc(S(=O)(=O)Nc2ccc(NC(=O)CCC(=O)Nc3ccc(NS(=O)(=O)c4ccc(CCCC)cc4)c(-c4nn[nH]n4)c3)cc2C(=O)O)cc1 | 45
> 200 µM | 1240 nM | 6.25 µM (≈ 4.78 µg/mL) | CCCCc1ccc(S(=O)(=O)Nc2ccc(NC(=O)CCC(=O)Nc3ccc(NS(=O)(=O)c4ccc(CCCC)cc4)c(C(=O)O)c3)cc2CO)cc1 | >32
> 200 µM | > 198000 nM | > 200 µM | CCCCc1ccc(S(=O)(=O)Nc2ccc(N(C)C(=O)CCC(=O)N(C)c3ccc(NS(=O)(=O)c4ccc(CCCC)cc4)c(C(=O)O)c3)cc2C(=O)O)cc1 | –
> 200 µM | > 198000 nM | > 200 µM | CCCCc1ccc(S(=O)(=O)Nc2ccc(NC(=O)CCC(=O)Nc3ccc(NS(=O)(=O)c4ccc(CCCC)cc4)c(C(=O)OCC)c3)cc2C(=O)OCC)cc1 | –
25 µM | 597 nM | 0.783 µM (≈ 0.61 µg/mL) | CCCCc1ccc(NS(=O)(=O)c2ccc(NC(=O)CCC(=O)Nc3ccc(NS(=O)(=O)c4ccc(CCCC)cc4)c(C(=O)O)c3)cc2C(=O)O)cc1 | 32
50 µM | 456 nM | 1.11 µM (≈ 0.877 µg/mL) | CCCCc1ccc(S(=O)(=O)Nc2ccc(NC(=O)CCC(=O)Nc3ccc(N(C)S(=O)(=O)c4ccc(CCCC)cc4)c(C(=O)O)c3)cc2C(=O)O)cc1 | 45
> 200 µM | 1600 nM | > 200 µM | CCCCc1ccc(S(=O)(=O)Nc2ccc(NC(=O)CCC(=O)Nc3ccc(NS(=O)(=O)c4ccc(CCCC)cc4)c(C(=O)O)c3)cc2C#N)cc1 | –
> 200 µM | 32400 nM | > 200 µM | CCCCc1ccc(S(=O)(=O)Nc2ccc(NC(=O)CCC(=O)Nc3cccc(C(=O)O)c3)cc2C(=O)O)cc1 | –
> 200 µM | > 22100 nM | 1.1 µM (≈ 0.874 µg/mL) | CCCCc1ccc(S(=O)(=O)Nc2ccc(NC(=O)[C@H]3C[C@@H]3C(=O)Nc3ccc(NS(=O)(=O)c4ccc(CCCC)cc4)c(C(=O)O)c3)cc2C(=O)O)cc1 (racemic) | >181
> 200 µM | 512 nM | > 200 µM | CCCCc1ccc(S(=O)(=O)Nc2ccc(NC(=O)CCC(=O)Nc3ccc(NS(=O)(=O)c4ccc(CCCC)cc4)c(C(N)=O)c3)cc2C(N)=O)cc1 | –
> 200 µM | > 66200 nM | > 200 µM | CCCCc1ccc(S(=O)(=O)Nc2ccc(NC(=O)CCC(=O)Nc3ccc(N)c(C(=O)O)c3)cc2C(=O)O)cc1 | –

More lines, now with the values behind:

SMILES | MIC95 (Acinetobacter baumannii [1]) | EC50 [2] | MIC95 (Acinetobacter baumannii [3]) | Selectivity ratio (Acinetobacter baumannii [4])
CCCCc1ccc(S(=O)(=O)Nc2ccc(NC(=O)CCC(=O)Nc3ccc(NS(=O)(=O)c4ccc(CCCC)cc4)c(S(=O)(=O)O)c3)cc2C(=O)O)cc1 | 12.5 µM | 37 nM | 0.196 µM (≈ 0.16 µg/mL) | 64
CCCCc1ccc(S(=O)(=O)Nc2ccc(NC(=O)CCC(=O)Nc3ccc(NS(=O)(=O)c4ccc(CCCC)cc4)c(C(=O)O)c3)cc2)cc1 | > 200 µM | 790 nM | 0.781 µM (≈ 0.574 µg/mL) | >256
CCCCc1ccc(S(=O)(=O)Nc2ccc(NC(=O)CCC(=O)Nc3ccc(NS(=O)(=O)c4ccc(CCCC)cc4)c(C(=O)O)c3)c(C(=O)O)c2)cc1 | 12.5 µM | 124 nM | 0.391 µM (≈ 0.305 µg/mL) | 32
CCCCc1ccc(S(=O)(=O)Nc2ccc(NC(=O)CCC(=O)Nc3ccc(NS(=O)(=O)c4ccc(CCCC)cc4)c(C(=O)O)c3)cc2F)cc1 | > 200 µM | 1170 nM | > 200 µM | –
CCCCc1ccc(S(=O)(=O)Nc2ccc(NC(=O)CCC(=O)Nc3ccc(NS(=O)(=O)c4ccc(OC)nc4)c(C(=O)O)c3)cc2C(=O)O)cc1 | 25 µM | 92 nM | 1.56 µM (≈ 1.18 µg/mL) | 16
CCCCc1ccc(S(=O)(=O)Nc2ccc(NC(=O)CCCOc3ccc(NS(=O)(=O)c4ccc(CCCC)cc4)c(C(=O)O)c3)cc2C(=O)O)cc1 | 6.25 µM | 16 nM | 0.069 µM (≈ 0.0528 µg/mL) | 91
CCCCc1ccc(S(=O)(=O)Nc2ccc(NC(=O)CCC(=O)Nc3ccc(NS(C)(=O)=O)c(C(=O)O)c3)cc2C(=O)O)cc1 | 200 µM | 6400 nM | 100 µM (≈ 66.1 µg/mL) | 2
CCCCc1ccc(S(=O)(=O)Nc2ccc(C(=O)NCCNC(=O)c3ccc(NS(=O)(=O)c4ccc(CCCC)cc4)c(C(=O)O)c3)cc2C(=O)O)cc1 | > 200 µM | > 198000 nM | > 200 µM | –
CCCCc1ccc(S(=O)(=O)N(C)c2ccc(NC(=O)CCC(=O)Nc3ccc(N(C)S(=O)(=O)c4ccc(CCCC)cc4)c(C(=O)O)c3)cc2C(=O)O)cc1 | > 200 µM | > 198000 nM | > 200 µM | –
CCCCc1ccc(C(=O)Nc2ccc(NC(=O)CCC(=O)Nc3ccc(NS(=O)(=O)c4ccc(CCCC)cc4)c(C(=O)O)c3)cc2C(=O)O)cc1 | > 200 µM | > 198000 nM | > 200 µM | –
CCCCc1ccc(S(=O)(=O)Nc2ccc(NC/C=C\CNc3ccc(NS(=O)(=O)c4ccc(CCCC)cc4)c(C(=O)O)c3)cc2C(=O)O)cc1 | 25 µM | > 198000 nM | 3.12 µM (≈ 2.34 µg/mL) | 8
CCCCc1ccc(S(=O)(=O)Nc2ccc(CNCCC(=O)Nc3ccc(NS(=O)(=O)c4ccc(CCCC)cc4)c(C(=O)O)c3)cc2C(=O)O)cc1 | 1.56 µM | 308 nM | 0.277 µM (≈ 0.212 µg/mL) | 5.6
CCCCc1ccc(S(=O)(=O)Nc2ccc(NC(=O)CCC(=O)Nc3ccc(NS(=O)(=O)c4ccc(CCCC)cc4)c(P(=O)(O)O)c3)cc2C(=O)O)cc1 | 25 µM | 416 nM | 1.56 µM (≈ 1.27 µg/mL) | 16
O=C(CCC(=O)Nc1ccc(NS(=O)(=O)c2ccc(Oc3ccccc3)nc2)c(C(=O)O)c1)Nc1ccc(NS(=O)(=O)c2ccc(Oc3ccccc3)nc2)c(C(=O)O)c1 | 6.25 µM | 136 nM | 0.196 µM (≈ 0.167 µg/mL) | 32
CCCCc1ccc(S(=O)(=O)Nc2ccc(NC(=O)CCC(=O)Nc3ccc(NS(=O)(=O)c4ccc(CCCC)cc4)c(C(=O)O)c3)cc2CC(=O)O)cc1 | 25 µM | 967 nM | 0.196 µM (≈ 0.155 µg/mL) | 128
CCCCc1ccc(S(=O)(=O)Nc2ccc(NC(=O)CCC(=O)Nc3ccc(NS(=O)(=O)c4ccccc4)c(C(=O)O)c3)cc2C(=O)O)cc1 | 12.5 µM | 311 nM | 0.782 µM (≈ 0.565 µg/mL) | 16
CCCCc1ccc(S(=O)(=O)Nc2ccc(NC(=O)CCC(=O)Nc3ccc(NS(=O)(=O)c4ccc(CCCC)cc4)c(C(=O)NC)c3)cc2C(=O)O)cc1 | > 200 µM | 765 nM | > 200 µM | –
